According to ChEMBL document CHEMBL3352027, “Pharmacologically active metabolites, combination screening and target identification-driven drug repositioning in antituberculosis drug discovery” (2014):
In brackets after ≈: the same amount, converted by molar mass.

tested on: Mycobacterium tuberculosis; assay: Antitubercular activity against drug-resistant Mycobacterium tuberculosis; assay type: functional

SMILES	MIC
CN[C@@H]1[C@H](O)[C@H](NC)[C@H]2O[C@]3(O)[C@H](O[C@@H]2[C@H]1O)O[C@H](C)C[C@H]3NC(=O)Cc1ccccn1	1.6 µg/mL (≈ 3.54 µM)
CN[C@@H]1[C@H](O)[C@H](NC)[C@H]2O[C@]3(O)[C@H](O[C@@H]2[C@H]1O)O[C@H](C)C[C@H]3NC(=O)Cc1ccccc1	1.6 µg/mL (≈ 3.54 µM)
CN[C@@H]1[C@H](O)[C@H](NC)[C@H]2O[C@]3(O)[C@H](O[C@@H]2[C@H]1O)O[C@H](C)C[C@H]3NC(=O)Cc1ccc(F)cn1	1.6 µg/mL (≈ 3.4 µM)
CN[C@@H]1[C@H](O)[C@H](NC)[C@H]2O[C@]3(O)[C@H](O[C@@H]2[C@H]1O)O[C@H](C)C[C@H]3NC(=O)Cc1ccc(Cl)cn1	1.6 µg/mL (≈ 3.29 µM)
CN[C@@H]1[C@H](O)[C@H](NC)[C@H]2O[C@]3(O)[C@H](O[C@@H]2[C@H]1O)O[C@H](C)C[C@H]3NC(=O)CNC(C)(C)C	1.6 µg/mL (≈ 3.58 µM)
CN[C@@H]1[C@H](O)[C@H](NC)[C@H]2O[C@]3(O)[C@H](O[C@@H]2[C@H]1O)O[C@H](C)C[C@H]3NC(=O)Cc1cscn1	1.6 µg/mL (≈ 3.49 µM)
CN[C@@H]1[C@H](O)[C@H](NC)[C@H]2O[C@]3(O)[C@H](O[C@@H]2[C@H]1O)O[C@H](C)C[C@H]3NC(=O)Cc1cc(Cl)ccn1	1.6 µg/mL (≈ 3.29 µM)
